In patent publication US9695155B2, “Herbicidal substituted pyrimidinyloxy benzene compounds” (E. I. DU PONT DE NEMOURS AND COMPANY, priority 2013, dated 2017):

What was measured:
lambsquarters = test: Test D postemergence; format: in vivo, Chenopodium album; conditions: Chenopodium album, post-emergence
Summary of the method: (§1)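 Plant response is a visual score from 0 (no effect) to 100 (complete control) relative to controls. Plants were kept in a controlled growth environment for 7 to 21 days after spraying. Preemergence treatments went onto silt loam soil; postemergence ones onto 1- to 4-leaf seedlings.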

oilseed rape = test: Test D preemergence; format: in vivo, Brassica napus; conditions: Brassica napus, pre-emergence
From the text: (§2) Seeds of plant species selected from bluegrass (annual bluegrass, Poa annua), blackgrass (Alopecurus myosuroides), canarygrass (littleseed canarygrass, Phalaris minor), chickweed (common chickweed, Stellaria media), galium (catchweed bedstraw, Galium aparine), bromegrass, downy (downy bromegrass, Bromus tectorum), field poppy (Papaver rhoeas), field violet (Viola arvensis), green foxtail (Setaria viridis), deadnettle (henbit deadnettle, Lamium amplexicaule), Italian ryegrass (Lolium multiflorum), kochia (Kochia scoparia), lambsquarters (Chenopodium album), oilseed rape (Brassica napus), pigweed (Amaranthus retroflexus), chamomile (scentless chamomile, Matricaria inodora), Russian thistle (Salsola kali), speedwell (bird's-eye speedwell, Veronica persica), spring barley (Hordeum vulgare), spring wheat (Triticum aestivum), wild buckwheat (Polygonum convolvulus), wild mustard (Sinapis arvensis), wild oat (Avena fatua), wild radish (Raphanus raphanistrum), windgrass (Apera spica-venti), winter barley (Hordeum vulgare), and winter wheat (Triticum aestivum) were planted into a silt loam soil and treated preemergence with test chemicals formulated in a non-phytotoxic solvent mixture which included a surfactant.
(§3) At the same time, these species were planted in pots containing Redi-Earth® planting medium (Scotts Company, 14111 Scottslawn Road, Marysville, Ohio 43041) comprising spaghnum peat moss, vermiculite, wetting agent and starter nutrients and treated with postemergence applications of the test chemicals formulated in the same manner. Plants ranged in height from 2 to 18 cm (1- to 4-leaf stage). Treated plants and controls were maintained in a controlled growth environment for 7 to 21 days after which time all species were compared to controls and visually evaluated. Plant response ratings, summarized in Table D, are based on a scale of 0 to 100 where 0 is no effect and 100 is complete control. A dash (-) response means no test result.

green foxtail [1] = test: Test D preemergence; format: in vivo, Setaria viridis; conditions: Setaria viridis, pre-emergence
Summary of the method: as §1

wild radish = test: Test D postemergence; format: in vivo, Raphanus raphanistrum; conditions: Raphanus raphanistrum, post-emergence
Summary of the method: as §1

chamomile = test: Test D preemergence; format: in vivo, Matricaria inodora; conditions: Tripleurospermum inodorum, pre-emergence
From the text: as §2, §3

wild mustard = test: Test D postemergence; format: in vivo, Sinapis arvensis; conditions: Brassica, post-emergence
From the text: as §2, §3

windgrass = test: Test D postemergence; format: in vivo, Apera spica-venti; conditions: Apera spica-venti, post-emergence
From the text: as §2, §3

bromegrass, downy = test: Test D postemergence; format: in vivo, Bromus tectorum; conditions: Bromus tectorum, post-emergence, Postemergence, scale 0 to 100 (0 no effect, 100 complete control), read-out: Plant response rating, Bromegrass, Downy
From the text: as §2, §3

pigweed = test: Test D postemergence; format: in vivo, Amaranthus retroflexus; conditions: Amaranthus retroflexus, post-emergence
From the text: as §2, §3

green foxtail [2] = test: Test D postemergence; format: in vivo, Setaria viridis; conditions: Setaria viridis, post-emergence
Summary of the method: as §1

With Fc1cccc(Oc2ncc(Cl)cn2)c1-n1cc(Br)cn1 [Compound 178, 2-[2-(4-bromo-1H-pyrazol-1-yl)-3-fluorophenoxy]-5-chloropyrimidine] the pest or weed control at 16 g/ha (lambsquarters; 16 g ai/ha, scale 0-100, read-out: Plant response rating, Lambsquarters) was 65%, the pest or weed control at 31 g/ha (lambsquarters; 31 g ai/ha, scale 0 to 100 (0 no effect, 100 complete control), read-out: Plant response rating, Lambsquarters) was 70% and the pest or weed control at 62 g/ha (lambsquarters; 62 g ai/ha, scale 0 to 100 (0 no effect, 100 complete control), read-out: Plant response rating, Lambsquarters) was 75%. For the same molecule, the pest or weed control at 125 g/ha (lambsquarters; 125 g ai/ha, scale 0 to 100 (0 no effect, 100 complete control), read-out: Plant response rating, Lambsquarters) was 85%, the plant injury at 16 g/ha (oilseed rape; 16 g ai/ha, scale 0 (no effect) to 100 (complete control), read-out: Plant response rating, Oilseed Rape) was 65% and the plant injury at 31 g/ha (oilseed rape; 31 g ai/ha, scale 0-100, read-out: Plant response rating, Oilseed Rape) was 75%. The plant injury at 125 g/ha (oilseed rape; 125 g ai/ha, scale 0-100, read-out: Plant response rating, Oilseed Rape) was 100%, the pest or weed control at 16 g/ha (green foxtail [1]; 16 g ai/ha, scale 0 (no effect) to 100 (complete control), read-out: Plant response rating, Foxtail, Green) was 0% and the pest or weed control at 31 g/ha (green foxtail [1]; 31 g ai/ha, scale 0-100, read-out: Plant response rating, Foxtail, Green) was 0%. It also gave a pest or weed control at 62 g/ha (green foxtail [1]; 62 g ai/ha, scale 0-100, read-out: Plant response rating, Foxtail, Green) of 5%, a pest or weed control at 125 g/ha (green foxtail [1]; 125 g ai/ha, scale 0-100, read-out: Plant response rating, Foxtail, Green) of 95% and a pest or weed control at 16 g/ha (wild radish; 16 g ai/ha, scale 0-100, read-out: Plant response rating, Radish, Wild) of 60%. For the same molecule, the pest or weed control at 31 g/ha (wild radish; 31 g ai/ha, scale 0 to 100 (0 no effect, 100 complete control), read-out: Plant response rating, Radish, Wild) was 65%, the pest or weed control at 62 g/ha (wild radish; 62 g ai/ha, scale 0 to 100 (0 no effect, 100 complete control), read-out: Plant response rating, Radish, Wild) was 70% and the pest or weed control at 125 g/ha (wild radish; 125 g ai/ha, scale 0 to 100 (0 no effect, 100 complete control), read-out: Plant response rating, Radish, Wild) was 80%. It also gave a pest or weed control at 16 g/ha (chamomile; 16 g ai/ha, scale 0 (no effect) to 100 (complete control), read-out: Plant response rating, Chamomile) of 0%, a pest or weed control at 31 g/ha (chamomile; 31 g ai/ha, scale 0-100, read-out: Plant response rating, Chamomile) of 70% and a pest or weed control at 62 g/ha (chamomile; 62 g ai/ha, scale 0-100, read-out: Plant response rating, Chamomile) of 55%. For the same molecule, the pest or weed control at 125 g/ha (chamomile; 125 g ai/ha, scale 0-100, read-out: Plant response rating, Chamomile) was 60%, the pest or weed control at 16 g/ha (wild mustard; 16 g ai/ha, scale 0-100, read-out: Plant response rating, Mustard, Wild) was 70% and the pest or weed control at 31 g/ha (wild mustard; 31 g ai/ha, scale 0 to 100 (0 no effect, 100 complete control), read-out: Plant response rating, Mustard, Wild) was 75%. For the same molecule, the pest or weed control at 62 g/ha (wild mustard; 62 g ai/ha, scale 0 to 100 (0 no effect, 100 complete control), read-out: Plant response rating, Mustard, Wild) was 75%, the pest or weed control at 125 g/ha (wild mustard; 125 g ai/ha, scale 0 to 100 (0 no effect, 100 complete control), read-out: Plant response rating, Mustard, Wild) was 100% and the pest or weed control at 16 g/ha (windgrass; 16 g ai/ha, scale 0-100, read-out: Plant response rating, Windgrass) was 5%. The pest or weed control at 31 g/ha (windgrass; 31 g ai/ha, scale 0 to 100 (0 no effect, 100 complete control), read-out: Plant response rating, Windgrass) was 10%, the pest or weed control at 62 g/ha (windgrass; 62 g ai/ha, scale 0 to 100 (0 no effect, 100 complete control), read-out: Plant response rating, Windgrass) was 15% and the pest or weed control at 125 g/ha (windgrass; 125 g ai/ha, scale 0 to 100 (0 no effect, 100 complete control), read-out: Plant response rating, Windgrass) was 20%. The pest or weed control at 16 g/ha (bromegrass, downy; 16 g ai/ha) was 5%, the pest or weed control at 31 g/ha (bromegrass, downy; 31 g ai/ha) was 5% and the pest or weed control at 62 g/ha (bromegrass, downy; 62 g ai/ha) was 10%. It also gave a pest or weed control at 125 g/ha (bromegrass, downy; 125 g ai/ha) of 20%, a pest or weed control at 16 g/ha (pigweed; 16 g ai/ha, scale 0-100, read-out: Plant response rating, Pigweed) of 75% and a pest or weed control at 31 g/ha (pigweed; 31 g ai/ha, scale 0 to 100 (0 no effect, 100 complete control), read-out: Plant response rating, Pigweed) of 80%. For the same molecule, the pest or weed control at 62 g/ha (pigweed; 62 g ai/ha, scale 0 to 100 (0 no effect, 100 complete control), read-out: Plant response rating, Pigweed) was 85%, the pest or weed control at 125 g/ha (pigweed; 125 g ai/ha, scale 0 to 100 (0 no effect, 100 complete control), read-out: Plant response rating, Pigweed) was 90% and the pest or weed control at 16 g/ha (green foxtail [2]; 16 g ai/ha, scale 0-100, read-out: Plant response rating, Foxtail, Green) was 15%. For the same molecule, the pest or weed control at 31 g/ha (green foxtail [2]; 31 g ai/ha, scale 0 to 100 (0 no effect, 100 complete control), read-out: Plant response rating, Foxtail, Green) was 20%, the pest or weed control at 62 g/ha (green foxtail [2]; 62 g ai/ha, scale 0 to 100 (0 no effect, 100 complete control), read-out: Plant response rating, Foxtail, Green) was 30% and the pest or weed control at 125 g/ha (green foxtail [2]; 125 g ai/ha, scale 0 to 100 (0 no effect, 100 complete control), read-out: Plant response rating, Foxtail, Green) was 35%.
